Holding throughout (assay type): cell-based
One test addresses T1, CCR1 (Homo sapiens, UniProt P32246).
T1 construct: expressed in transfected cells; host or cells: HEK293; plasmid gift of Dr. Philip M. Murphy (NIAID, NIH)
T1 sequence (P32246 1-355): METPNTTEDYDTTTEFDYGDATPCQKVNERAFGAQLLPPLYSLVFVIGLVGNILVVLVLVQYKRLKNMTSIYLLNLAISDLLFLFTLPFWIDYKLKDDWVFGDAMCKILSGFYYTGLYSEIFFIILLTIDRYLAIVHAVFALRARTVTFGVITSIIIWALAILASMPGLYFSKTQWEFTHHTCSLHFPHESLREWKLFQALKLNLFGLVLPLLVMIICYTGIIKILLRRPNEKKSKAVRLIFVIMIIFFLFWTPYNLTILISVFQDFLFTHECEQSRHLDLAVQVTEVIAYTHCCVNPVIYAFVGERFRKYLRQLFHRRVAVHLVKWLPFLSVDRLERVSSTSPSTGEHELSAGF
Kind of test: Chemotaxis inhibition assay for receptor specificity, HEK293-CCR1. The settings on record: 0.2, 1, 5, 25 μM, 30 min pretreatment. How it is done: (§1) HEK293 cells were transfected with different chemokine receptors. The corresponding chemokines of different receptors were placed in the lower chambers. The transfected cells were pretreated with different concentrations of Compound 8a or 1‰ DMSO for 30 min at a density of 1 × 10^6 cells/ml and added to the upper chambers, the final concentration of the compound is: 0.2 μM, 1 μM, 5 μM, and 25 μM, respectively.

The target of a further test is T2, CCR2B (Homo sapiens, UniProt P41597).
T2 construct: expressed in transfected cells; host or cells: HEK293, pcDB-CCR2B plasmid made in the authors' laboratory
T2 sequence (P41597 1-360 isoform P41597-2): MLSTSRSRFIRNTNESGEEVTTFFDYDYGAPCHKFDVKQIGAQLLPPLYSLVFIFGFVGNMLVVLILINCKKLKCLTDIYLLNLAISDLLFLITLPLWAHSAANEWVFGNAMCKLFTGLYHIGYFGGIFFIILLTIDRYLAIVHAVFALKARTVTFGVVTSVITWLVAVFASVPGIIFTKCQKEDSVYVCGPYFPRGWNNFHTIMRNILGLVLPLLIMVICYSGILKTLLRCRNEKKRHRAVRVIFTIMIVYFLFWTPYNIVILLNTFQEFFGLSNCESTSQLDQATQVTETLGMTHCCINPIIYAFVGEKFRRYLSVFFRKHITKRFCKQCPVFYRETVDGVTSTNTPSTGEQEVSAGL
Kind of test: Chemotaxis inhibition assay for receptor specificity, HEK293-CCR2B. The settings on record: 0.2, 1, 5, 25 μM, 30 min pretreatment. How it is done: as §1

In test [1] the target is T3, CXCR4 (Homo sapiens, UniProt P61073).
T3 construct: expressed in transfected cells; host or cells: HEK293; plasmid from Chinese National Human Genome Center
Kind of test: Chemotaxis inhibition assay for receptor specificity, HEK293-CXCR4. The settings on record: 0.2, 1, 5, 25 μM, 30 min pretreatment. The protocol:
as §1

The target in a further test is T4, CCR7 (Homo sapiens, UniProt P32248).
T4 construct: expressed in transfected cells; host or cells: HEK293, pcDB-CCR7 plasmid made in the authors' laboratory
T4 sequence (P32248 25-378): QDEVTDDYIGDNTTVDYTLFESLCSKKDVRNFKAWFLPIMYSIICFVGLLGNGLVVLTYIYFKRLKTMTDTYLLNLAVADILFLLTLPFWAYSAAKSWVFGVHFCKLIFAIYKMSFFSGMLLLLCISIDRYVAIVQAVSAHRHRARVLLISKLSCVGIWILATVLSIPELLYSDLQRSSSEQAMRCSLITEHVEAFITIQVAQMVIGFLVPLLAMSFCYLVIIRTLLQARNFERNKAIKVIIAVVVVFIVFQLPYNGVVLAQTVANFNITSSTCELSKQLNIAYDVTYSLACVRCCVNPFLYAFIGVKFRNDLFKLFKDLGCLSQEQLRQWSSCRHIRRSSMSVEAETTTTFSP
Kind of test: Chemotaxis assay for receptor specificity, HEK293-CCR7. The settings on record: compound as chemoattractant in lower chamber, 0.2, 1, 5, 25 μM. How it is done: (§2) HEK293 cells were transfected with different chemokine receptors. Compound 8a with DMSO was diluted to 0.2 mM, 1 mM, 5 mM and 25 mM, and then we used RPMI 1640 medium containing 0.1% BSA for dilution. The final concentration is: 0.2 μM, 1 μM, 5 μM and 25 μM. DMSO was also diluted 1000-fold with 0.1% BSA RPMI 1640 medium. Chemokines was also diluted to an appropriate concentration. The dilutions of Compound 8a, 1‰ DMSO, the corresponding chemokines of different receptors and 0.1% BSA RPMI 1640 medium were placed in the lower chambers (27.5 μl/well). The transfected HEK293 cells were resuspended in the same medium at a density of 1 × 10^6 cells/ml and added to the upper chambers (55 μl/well).

In test [2] the target is T3, CXCR4. Kind of test: Chemotaxis assay for receptor specificity, HEK293-CXCR4. The settings on record: compound as chemoattractant in lower chamber, 0.2, 1, 5, 25 μM. How it is done:
as §2

T3 sequence (P61073 1-356 isoform P61073-2): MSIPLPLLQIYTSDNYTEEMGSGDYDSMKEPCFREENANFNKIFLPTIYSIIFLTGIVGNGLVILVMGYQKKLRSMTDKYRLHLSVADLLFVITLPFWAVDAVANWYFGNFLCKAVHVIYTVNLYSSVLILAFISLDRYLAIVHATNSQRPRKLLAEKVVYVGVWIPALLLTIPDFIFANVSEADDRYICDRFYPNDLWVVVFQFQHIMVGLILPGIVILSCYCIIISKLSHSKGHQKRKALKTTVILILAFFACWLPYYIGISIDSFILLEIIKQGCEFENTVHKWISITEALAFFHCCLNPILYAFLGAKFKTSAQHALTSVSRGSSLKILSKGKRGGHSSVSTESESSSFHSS

As to `O=C(C1CCCCN1)N1CCN(c2nc(Cl)cc(NCc3ccc(Cl)cc3Cl)n2)CC1` (centres unmarked) [compound 8a, {4-[4-Chloro-6-(2,4-dichloro-benzylamino)-pyrimidin-2-yl]-piperazin-1-yl}-piperidin-2-yl-methanone], on CCR1, the “inhibition of chemotaxis of HEK293-CCR1 to its ligand” value is recorded as “few influence”. In addition, the “inhibition of chemotaxis of HEK293-CCR2B to its ligand” value on CCR2B is “few influence”. Also, on CXCR4 [1], the “inhibition of chemotaxis of HEK293-CXCR4 to its ligand” value is recorded as “few influence”. Also, the “chemotaxis effect of the compound on HEK293-CCR7” value at CCR7 was “didn’t exert chemotaxis effects”. Moreover, the “chemotaxis effect of the compound on HEK293-CXCR4” value on CXCR4 [2] is on record as “didn’t exert chemotaxis effects”.

(Values after PMC5678437, “A new antagonist for CCR4 attenuates allergic lung inflammation in a mouse model of asthma” (Scientific Reports, 2017).)
